In brackets after ≈: the same amount, converted by molar mass. Entries after “also recorded” stand apart in the source; their conditions may differ. Read-outs that look alike come from different tables or passages of the source.
Experiments:
[1] = tested on: maltose-loaded mice; experiment: Maltose loading test (hypoglycemic effect); format: in vivo, ICR mice; details: maltose loading 2.0 g/kg, 1.0 mpk
Description: A maltose loading test on compounds 10, 20c, neoponkoranol, and positive control (voglibose) was conducted to further evaluate their in vivo hypoglycemic effects against maltase.
The animal experimental protocols in this study were approved by the Experimental Animal Center of Shanghai Institute of Materia Medica (Shanghai, China). Male ICR (Institute of Cancer Research) mice (29−33 g) after an overnight fast were used for acute maltose and sucrose loading tests. […] A control group was loaded with distillation−distillation water. In the sucrose loading test, sucrose (2.5 g/kg of body weight) and the inhibitor miglitol were dissolved in distillation−distillation water and administered to the mice via a stomach tube. A control group was loaded with distillation−distillation water. Blood samples for glucose measurements were obtained from the tail vein at 0, 15, 30, 60, and 120 min after maltose and sucrose loading. The blood glucose levels were measured by a portable kit, StatStrip Xpress (Nova Biomedical Co., Ltd., Waltham, MA, USA). The AUC over was calculated by the trapezoidal method.

[2] = target: T1, rat intestinal sucrase (Rattus norvegicus, UniProt P23739); experiment: In vitro α-glucosidase inhibition assay, rat intestinal sucrase; format: biochemical
T1 construct: rat small intestinal brush border membrane vesicles were first prepared; from tissue; host or cells: rat small intestine, brush border membrane vesicles
Description: (§1) The testing method previously described was modified and used. Thus, rat small intestinal brush border membrane vesicles were first prepared, and its suspension in 0.1 M maleate buffer (pH = 6.0) was used as small intestinal α-glucosidases of maltase and sucrase. A test compound was dissolved in dimethylsulfoxide (DMSO), and the resulting solution was diluted with 0.1 M maleate buffer to prepare the test compound solution (concentration of DMSO: 10%). The substrate solution in maleate buffer ([…], 50 μL), a test compound solution (25 μL), and the enzyme solution (25 μL) were mixed and incubated at 37 °C for 30 min. After incubation, the solution was immediately heated by boiling water for 2 min to stop the reaction, and the solution was mixed with water (150 μL). Glucose concentration was determined by the glucose-oxidase method. […] The IC50 value was determined graphically by a plot of percent inhibition versus log of the test compound.

[3] = target: rat intestinal maltase; details: read-out: IC50 against maltase (converted), cited from earlier work
[4] = target: rat intestinal maltase; experiment: In vitro α-glucosidase inhibition assay, rat intestinal maltase; format: biochemical; details: for IC50: rat small intestinal brush border membrane vesicles, maltose substrate, mean ± SD (n = 3), read-out: IC50 against maltase
Description: as §1

[5] = target: T1, rat intestinal sucrase; experiment: Inhibition-kinetic study (Lineweaver–Burk), sucrase; format: biochemical; details: for type of inhibition, sucrase: Lineweaver–Burk plots
Description: (§2) In order to explore the inhibitory mechanism of the α-glucosidase by this family of compounds, enzyme kinetic assays were conducted on 20a, 20c, and 10, followed by a detailed kinetic analysis using the Lineweaver–Burk plots. (Figure 3) The small intestinal brush border membrane vesicles were incubated with varying concentrations of maltose (3.27 mg/mL) for maltase assays and sucrose (52.37 mg/mL) for sucrase assays.
(§3) For kinetic analyses of maltase and sucrase by compounds (20a, 20c, and 10), the enzyme and test samples (1.0 mg/mL for maltase and 0.2 mg/mL for sucrase) were incubated with increasing concentrations of maltose (2.5, 5, 10, 20, 50, 100 μM) and sucrose (5, 10, 20, 50, 100, 1000 μM) at 37 °C for 30 min. The tube was immediately immersed in boiling water for 2 min to stop the reaction, then cooled with water. The glucose concentration was determined by the glucose-oxidase method. […] The Lineweaver–Burk equation follows as: 1/V=Km/Vmax×[…]
(§4) Ki values for each inhibitor were determined by the equation: Ki=[I]×Km/[[…]−Km]

[6] = tested on: rat intestinal maltase; experiment: Inhibition-kinetic study (Lineweaver–Burk), maltase; format: biochemical; details: for type of inhibition, maltase: Lineweaver–Burk plots; for Ki Maltase (Km = 3.0 mM): small intestinal α-glucosidase, Lineweaver–Burk
Description: as §2, §3, §4

[7] = tested on: sucrose-loaded mice; experiment: Sucrose loading test (hypoglycemic effect); format: in vivo, ICR mice; details: sucrose loading […] p.o.
Description: Research has shown a strong association between the 2 h postprandial blood glucose level and the risk of cardiovascular events, diabetic microvascular complications such as retinopathy, and the progression of macrovascular diseases. […] Considering this underlying pathological process, α-glucosidase inhibitors, which efficiently regulate postprandial glucose fluctuations, hold significant therapeutic promise for alleviating diabetes-related complications. […] Subsequently, doses were reduced to 1.0 mg/kg.
The animal experimental protocols in this study were approved by the Experimental Animal Center of Shanghai Institute of Materia Medica (Shanghai, China). Male ICR (Institute of Cancer Research) mice (29−33 g) after an overnight fast were used for acute maltose and sucrose loading tests. In the maltose loading test, maltose ([…] of body weight) and the inhibitors and voglibose were dissolved in distillation−distillation water and administered to the mice via a stomach tube. A control group was loaded with distillation−distillation water. In the sucrose loading test, sucrose (2.5 g/kg of body weight) and the inhibitor miglitol were dissolved in distillation−distillation water and administered to the mice via a stomach tube. A control group was loaded with distillation−distillation water. Blood samples for glucose measurements were obtained from the tail vein at 0, 15, 30, 60, and 120 min after maltose and sucrose loading. The blood glucose levels were measured by a portable kit, StatStrip Xpress (Nova Biomedical Co., Ltd., Waltham, MA, USA). The AUC over was calculated by the trapezoidal method.

[8] = tested on: HELF, a human embryonic lung fibroblast cell line; experiment: MTT cytotoxicity assay on HELF cells; format: cell-based; details: for IC50: Homo sapiens, HELF, read-out: IC50 against normal cell line HELF; for cytotoxicity (MTT assay): different cell lines
Description: (§5) The cytotoxicity of selected sulfonium salts (20a, 20c, and 10) was then evaluated via the 3-[4,5-dimethylthiazol-2-yl]-2,5-diphenyl-tetrazolium bromide (MTT) assay against different cell lines.
Briefly, the HELF-adherent cells were cultured in a 96-well plate overnight in a CO2 environment at 37 °C. Supernatant was removed, and 100 μL serially diluted compounds with complete medium DMEM supplemented with 10% (v/v) fetal bovine serum, penicillin (100 units/mL), and streptomycin (100 μg/mL) were added to each well. After the incubation, the culture medium was aspirated carefully, and 50 μL of MTT solution (2mg/mL PBS) was added to each well and further incubated for 4h. After this, MTT solution was aspirated, and cells were PBS-washed once, and 100 μL of DMSO was added to dissolve the blue insoluble MTT formazan produced by the action of mitochondrial dehydrogenase. The plate was agitated at room temperature for 15 min and then read at 570 nm by using a microplate reader. The percentage of viable cells was calculated as the relative ratio of optical densities.

[9] = tested on: LO2; experiment: Cytotoxicity against normal cell line LO2; format: cell-based; details: Homo sapiens, L02
Description: as §5
(§6) Compounds HELF LO2 Primary Hepatocyte
(§7) (1 picture or pasted object on this page, not shown here)

[10] = tested on: Primary Hepatocyte; experiment: Cytotoxicity against Primary Hepatocyte; format: cell-based
Description: as §5, §6, §7

[11] = target: T1, rat intestinal sucrase; details: literature value; read-out: IC50 against sucrase (converted); cited from earlier work
[12] = rat small intestinal brush border membrane vesicles, sucrose substrate, mean ± SD (n = 3), read-out: IC50 against sucrase

T1 sequence (P23739 whole entry): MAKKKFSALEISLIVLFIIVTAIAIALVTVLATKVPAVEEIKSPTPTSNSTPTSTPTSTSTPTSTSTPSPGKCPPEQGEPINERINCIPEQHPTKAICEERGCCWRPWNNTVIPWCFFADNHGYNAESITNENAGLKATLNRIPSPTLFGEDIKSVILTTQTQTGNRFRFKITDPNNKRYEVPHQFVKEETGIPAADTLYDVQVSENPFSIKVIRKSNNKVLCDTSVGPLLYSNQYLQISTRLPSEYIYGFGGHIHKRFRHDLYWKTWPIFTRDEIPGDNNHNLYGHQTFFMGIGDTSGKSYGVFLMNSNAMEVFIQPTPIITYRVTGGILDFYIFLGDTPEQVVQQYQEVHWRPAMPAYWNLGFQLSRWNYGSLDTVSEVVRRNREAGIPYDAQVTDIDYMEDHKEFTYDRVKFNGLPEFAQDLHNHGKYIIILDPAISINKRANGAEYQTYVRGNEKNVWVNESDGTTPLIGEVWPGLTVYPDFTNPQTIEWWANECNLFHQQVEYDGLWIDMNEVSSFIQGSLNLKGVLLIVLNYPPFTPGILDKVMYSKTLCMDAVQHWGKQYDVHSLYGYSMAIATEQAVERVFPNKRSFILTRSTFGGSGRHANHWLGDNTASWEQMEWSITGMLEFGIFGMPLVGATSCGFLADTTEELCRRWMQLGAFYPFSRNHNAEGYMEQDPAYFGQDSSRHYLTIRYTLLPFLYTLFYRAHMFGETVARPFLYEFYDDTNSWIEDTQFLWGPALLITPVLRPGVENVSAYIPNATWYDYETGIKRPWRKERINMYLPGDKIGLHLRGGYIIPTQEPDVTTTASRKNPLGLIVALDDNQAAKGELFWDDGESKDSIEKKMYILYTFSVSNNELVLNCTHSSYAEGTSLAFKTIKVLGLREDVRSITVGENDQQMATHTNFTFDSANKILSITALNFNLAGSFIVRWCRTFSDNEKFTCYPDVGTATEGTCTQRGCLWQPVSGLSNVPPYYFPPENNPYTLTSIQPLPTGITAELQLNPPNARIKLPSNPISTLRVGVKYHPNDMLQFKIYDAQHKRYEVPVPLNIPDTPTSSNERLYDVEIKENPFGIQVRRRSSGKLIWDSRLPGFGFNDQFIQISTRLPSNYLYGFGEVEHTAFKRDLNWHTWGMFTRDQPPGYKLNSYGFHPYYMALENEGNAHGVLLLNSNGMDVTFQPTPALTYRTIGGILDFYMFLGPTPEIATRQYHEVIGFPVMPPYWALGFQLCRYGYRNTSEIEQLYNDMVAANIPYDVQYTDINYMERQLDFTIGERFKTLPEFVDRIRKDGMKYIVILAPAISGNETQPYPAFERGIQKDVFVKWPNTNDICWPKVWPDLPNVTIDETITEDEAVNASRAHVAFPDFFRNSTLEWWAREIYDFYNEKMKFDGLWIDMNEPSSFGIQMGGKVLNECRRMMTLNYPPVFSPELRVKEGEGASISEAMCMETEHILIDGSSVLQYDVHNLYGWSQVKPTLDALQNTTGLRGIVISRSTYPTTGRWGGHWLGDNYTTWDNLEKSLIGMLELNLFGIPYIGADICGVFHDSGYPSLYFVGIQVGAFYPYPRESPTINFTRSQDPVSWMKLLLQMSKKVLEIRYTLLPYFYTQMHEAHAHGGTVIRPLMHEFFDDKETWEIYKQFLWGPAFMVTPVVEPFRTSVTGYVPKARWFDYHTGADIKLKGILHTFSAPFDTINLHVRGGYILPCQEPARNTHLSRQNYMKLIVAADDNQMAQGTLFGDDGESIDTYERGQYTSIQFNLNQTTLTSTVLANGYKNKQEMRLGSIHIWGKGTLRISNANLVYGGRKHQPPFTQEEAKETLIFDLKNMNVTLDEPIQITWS

Compound | Declined Rate of Blood Glucose Levels, 15 min [1] [%] | Declined Rate of Blood Glucose Levels, 30 min [1] [%] | Declined Rate of Blood Glucose Levels, 60 min ([1]; 1 mg/kg) [%] | Declined Rate of AUC ([1]; 1 mg/kg) [%] | IC50 [2, 12] [nM] | IC50 ([3]; literature value ^[a]) [nM] | IC50 [4] [nM] | Ki [5] [nM] | type of inhibition, sucrase [5] | type of inhibition, maltase [6] | Ki Maltase (Km = 3.0 mM) [6] [µg/mL] | IC50 [2] [nM] | Declined Rate of Blood Glucose Levels, 15 min ([7]; 1.0 mpk) [%] | Declined Rate of Blood Glucose Levels, 30 min ([7]; 1.0 mpk) [%] | Declined Rate of Blood Glucose Levels, 60 min ([7]; 1.0 mpk) [%] | Declined Rate of AUC ([7]; 1.0 mpk) [%] | IC50 [8] [nM] | cytotoxicity (MTT assay) [8] | IC50 [9] [nM] | IC50 [10] [nM] | other results
OCC(CO)N[C@H]1C[C@](O)(CO)[C@@H](O)[C@H](O)[C@H]1O [voglibose] | 49.2 | 53.7 | 40.1 | 39.8 | 350 | 1500 | 1450 | – | – | – | – | – | – | – | – | – | – | – | – | – | –
OC[C@@H]1[C@@H](O)[C@H](O)C[Se@+]1C[C@@H](O)[C@H]1OC(c2cc(Cl)ccc2Cl)OC[C@H]1O.[Cl-] (stereo partly drawn) [20c, (1S,2R,3S,4S)-1-((2S)-2-((4S,5R)-2-(2,5-Dichlorophenyl)-5-hydroxy-1,3-dioxan-4-yl)-2-hydroxyethyl)-3,4-dihydroxy-2-(hydroxymethyl)tetrahydro-1H-selenophen-1-ium chloride] | 45.8 | 47.4 | 43.5 | 40.2 | – | – | 140 ± 50 | 381 | fully competitive | fully competitive | 0.67 | 50 ± 20 | 40.0 | 40.3 | 38.2 | 34.00 | > 500000 | low toxicity; also recorded: non-toxic | > 500000 | > 500000 | fold greater potency than acarbose, sucrase ([2]; IC50 ratio vs acarbose): 44 fold; Declined Rate of Blood Glucose Levels, 15 min ([7]; 10.0 mpk, 10 mg/kg): 48.6%; Declined Rate of Blood Glucose Levels, 30 min ([7]; 10.0 mpk, 10 mg/kg): 52.8%; Declined Rate of Blood Glucose Levels, 60 min ([7]; 10.0 mpk, 10 mg/kg): 48.1%; Declined Rate of AUC ([7]; 10.0 mpk, 10 mg/kg): 46.4%; fold greater potency than acarbose, maltase ([4]; IC50 ratio vs acarbose): 25 fold
OC[C@@H]1[C@@H](O)[C@H](O)C[Se@+]1C[C@@H](O)[C@H]1OC(c2cccc(Cl)c2Cl)OC[C@H]1O.[Cl-] (stereo partly drawn) [20a, (1S,2R,3S,4S)-1-((2S)-2-((4S,5R)-2-(2,3-Dichlorophenyl)-5-hydroxy-1,3-dioxan-4-yl)-2-hydroxyethyl)-3,4-dihydroxy-2-(hydroxymethyl)tetrahydro-1H-selenophen-1-ium chloride] | – | – | – | – | – | – | 330 ± 150 | 934 | fully competitive | fully competitive | 0.94 | 190 ± 20 | – | – | – | – | > 500000 | non-toxic | > 500000 | > 500000 | –
O=[N+]([O-])c1ccccc1C1OC[C@@H](O)[C@@H]([C@H](O)C[S@@+]2C[C@@H](O)[C@H](O)[C@H]2CO)O1 (stereo partly drawn) [compound 10] | – | – | 47.2 | – | – | – | – | – | fully competitive | fully competitive | 0.42 | – | 41.8 | 43.00 | 39.1 | 35.2 | – | non-toxic | – | – | Declined Rate of Blood Glucose Levels, 15 min ([1]; 1 mg/kg): 52.8%; Declined Rate of Blood Glucose Levels, 30 min ([1]; 1 mg/kg): 55.0%; Declined Rate of AUC [1]: 43.5%; Ki ([5]; small intestinal α-glucosidase, Lineweaver–Burk, read-out: Ki Sucrase (Km = 23.56 mM) (converted)): 693 nM; Declined Rate of Blood Glucose Levels, 15 min ([7]; 10.0 mpk): 48.0%; Declined Rate of Blood Glucose Levels, 30 min ([7]; 10.0 mpk): 54.6%; Declined Rate of Blood Glucose Levels, 60 min ([7]; 10.0 mpk): 52.5%; Declined Rate of AUC ([7]; 10.0 mpk): 46.6%
C[C@H]1O[C@H](O[C@H]2[C@H](O)[C@@H](O)[C@@H](O[C@H]3[C@H](O)[C@@H](O)C(O)O[C@@H]3CO)O[C@@H]2CO)[C@H](O)[C@@H](O)[C@@H]1N[C@H]1C=C(CO)[C@@H](O)[C@H](O)[C@H]1O (stereo partly drawn) [acarbose] | – | – | – | – | – | 3200 | 3500 | – | – | – | 1.98 (≈ 3.07 µM) | – | – | – | – | – | – | – | – | – | Declined Rate of Blood Glucose Levels, 15 min ([7]; 20.0 mpk, 20 mg/kg): 45.7%; Declined Rate of Blood Glucose Levels, 30 min ([7]; 20.0 mpk, 20 mg/kg): 48.4%; Declined Rate of Blood Glucose Levels, 60 min ([7]; 20.0 mpk): 44.3%; Declined Rate of AUC ([7]; 20.0 mpk, 20 mg/kg): 40.5%
OCC1C(O)C(O)C[S+]1CC(O)C1OC(c2ccccc2F)OCC1O [19n, 1,4-Dideoxy-1,4-{(R)-[5-deoxy-1,3-O-(o-fluorophenylmethylene)-D-arabinitol-5-yl]episulfoniumylidene}-D-arabinitol chloride] | – | – | – | – | 550 | – | 420 | – | – | – | – | – | – | – | – | – | – | – | – | – | IC50 ([3]; literature value): 400 nM; IC50 [11]: 840 nM
